Results reported in PubChem BioAssay (NCI).
“And” between values parts separate entries of the source, which are not always exact repeats. Equal entries are not always repeated.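 Where inhibition never reached the appropriate level, the endpoint shown equals the highest concentration tested. Otherwise, values were interpolated linearly from a five-concentration, 48-hour dose response in 96-well plates. GI50: concentration for 50% inhibition of growth. TGI: concentration producing complete growth inhibition.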

What was measured:
Experiment in all cases: NCI tumour cell line growth inhibition, 48 h
[1] = test system: UO-31 renal
[2] = test system: MALME-3M melanoma
[3] = test system: HOP-92 NSCLC
[4] = test system: M14 melanoma
[5] = test system: DU-145 prostate
[6] = test system: OVCAR-8 ovarian
[7] = test system: NCI/ADR-RES ovarian

Row | SMILES | GI50 [1] | TGI [1] | GI50 [2] | TGI [2] | GI50 [3] | TGI [3] | GI50 [4] | TGI [4] | GI50 [5] | TGI [5] | GI50 [6] | GI50 [7] | TGI [7] | TGI [6]
1 | CC1=C[C@H]2c3c(c(O)c(O)c4oc5cc(O)cc(O)c5c(=O)c34)[C@H](c3cc(O)c(O)c4oc5cc(O)cc(O)c5c(=O)c34)[C@H]2C(C)(C)C1 | 1.38 µM and 1.55 µM | 3.28 µM and 8.22 µM | 1.73 µM and 1.98 µM | 4.1 µM and 5.31 µM | 1.94 µM and 1.1 µM | 4.73 µM and 3.33 µM | 1.59 µM and 1.62 µM | 5.19 µM and 4.93 µM | 2.48 µM and 2.08 µM | 11.4 µM and 12.8 µM | 2.38 µM and 3.39 µM | 8.48 µM and 3.63 µM | 34.9 µM and 25.4 µM | –
2 | Cc1cc(C)cc(Nc2nccc(-c3c(-c4ccc(F)cc4)ncn3C3CCNCC3)n2)c1 | 0.692 µM | 2.15 µM | 1.61 µM | 3.39 µM | 1.34 µM | 3.53 µM | 1.59 µM | 3.18 µM | 1.46 µM | 3.14 µM | 1.66 µM | 1.79 µM | 4.07 µM | 5.01 µM
3 | COc1ccc(S(=O)(=O)O)cc1NS(=O)(=O)c1ccc(C)cc1 | – | > 100 µM | – | – | – | – | – | > 100 µM | – | > 100 µM | – | – | > 100 µM | > 100 µM
4 | COc1cc(Nc2ncc3c(n2)-c2ccc(Cl)cc2C(c2c(F)cccc2OC)=NC3)ccc1C(=O)O | 2.57 µM | 21.4 µM | 16.9 µM | > 89.1 µM | 2.35 µM | 14.1 µM | 13.6 µM | 42.8 µM | 17.6 µM | > 87.5 µM | 8.94 µM | 1.38 µM | > 100 µM | > 100 µM
5 | COc1cc(C/C=C/c2ccccc2)c(OC)cc1O | – | 31.4 µM | – | 42.4 µM | – | 33 µM | – | 46.4 µM | – | 37.3 µM | – | – | 72 µM | 37 µM
6 | COc1cc(C(=O)/C=C/c2c(-c3ccc(F)cc3)nc3sccn23)cc(OC)c1OC | 2.87 µM | > 27 µM | 3.96 µM | > 33.9 µM | 1.7 µM | – | 2.33 µM | 9.44 µM | 2.52 µM | 6.64 µM | 2.4 µM | 2.05 µM | 6.28 µM | > 21.4 µM
7 | C/C1=C\CC[C@@](C)(O)[C@H]2C[C@H](CC/C(C)=C/CC1)C1(CC1)C(=O)O2 | 18.2 µM | 33.8 µM | – | – | 16 µM | 33.3 µM | 31.4 µM | > 100 µM | 16.6 µM | 31.2 µM | 20 µM | 23.6 µM | 57.4 µM | 40.8 µM
8 | O=C(c1ccc(O)cc1)c1ccc(C(=O)c2ccc(O)cc2)cc1 | – | – | 35.7 µM | > 100 µM | 8.04 µM | > 100 µM | > 100 µM | > 100 µM | > 100 µM | > 100 µM | 20.8 µM | – | – | > 100 µM
9 | COc1cc2c(cc1OCCCCC(=O)Nc1ccc(-c3nc4ccccc4s3)cc1)N=C[C@@H]1CCCN1C2=O | 1.66 µM | 3.66 µM | – | – | 1.72 µM | 4.63 µM | 1.55 µM | 3.18 µM | – | – | 1.57 µM | 10.9 µM | 62.6 µM | 4.5 µM
10 | CC(=O)OC1CCC2(C)C(CCC3C2CCC2(C)C(C4=CC(=O)OC4)CCC32)C1 (stereo not drawn) | 16.1 µM | 49.9 µM | 4.23 µM | 23.1 µM | 2.93 µM | 22.6 µM | 5.93 µM | > 100 µM | 14.7 µM | 40.3 µM | 4.2 µM | 8.37 µM | 42.7 µM | 36.7 µM
11 | Cc1sc2nc(-c3ccccn3)c(/C=N/N=C(N)N)n2c1C | 8.94 µM | 20.9 µM | 4.53 µM | 9.81 µM | 7.55 µM | 15.8 µM | 7.28 µM | 12.1 µM | 4.88 µM | 12.6 µM | 6.65 µM | > 21.9 µM | > 40 µM | 68.1 µM
12 | CN(C)CCCNC(=O)c1cc2c3ccccc3[nH]c2c2ncccc12 | 10.9 µM | > 100 µM | 13 µM | 27 µM | 14.2 µM | 57.3 µM | – | – | 19.7 µM | > 100 µM | 12.6 µM | 19.2 µM | 66.1 µM | > 100 µM
13 | NC1=CC(=O)C(=O)c2cccnc21 | 2.48 µM | 17.7 µM | 2.22 µM | 4.63 µM | – | – | 1.83 µM | 6.29 µM | 4.94 µM | 16.3 µM | 3.21 µM | 3.6 µM | 24 µM | 16.6 µM
14 | Cn1cc(-c2csc(-c3cn(CCN4CCOCC4)c4ccc(F)cc34)n2)c2cccnc21 | 2.2 µM | 7.88 µM | 2.88 µM | 12.3 µM | 2.39 µM | 9.12 µM | 2.09 µM | 4.89 µM | 3.12 µM | > 100 µM | 2.75 µM | 2.36 µM | 8.15 µM | 7.88 µM
15 | Cc1cc[c-]cc1.Fc1c[c-]c(-c2ccccn2)c(F)c1.N#CCC[PH+](CCC#N)c1ccccc1.[Pt+2] | 1.45 µM | 2.82 µM | – | – | 2.14 µM | 8.05 µM | 2.94 µM | 10.9 µM | 2.46 µM | 6.22 µM | 4 µM | 4.24 µM | 52.8 µM | > 100 µM
16 | O=C1c2c(c3c4ccccc4n4c3c3c2c2ccccc2n3C/C=C\C4)C(=O)N1Cc1ccccc1 | – | > 100 µM | – | > 100 µM | – | – | – | > 100 µM | – | – | – | – | – | > 100 µM
17 | COc1ccc(-c2nnc3n(C)c(=O)c4ccccc4n23)cc1O | 2.13 µM | > 100 µM | – | – | 1.31 µM | 61.5 µM | 0.127 µM | 25.9 µM | 2.22 µM | > 100 µM | 1.52 µM | 0.154 µM | 33.9 µM | > 100 µM
18 | O=C1C[C@@H](c2ccccc2)NCCCCN(O)CCCN1 | – | > 100 µM | – | > 100 µM | – | > 100 µM | – | > 100 µM | – | > 100 µM | – | – | > 100 µM | > 100 µM
19 | C[C@@H]1CN(Cc2ccc(/C=C/c3n[nH]c4ccc5nc(-c6cn[nH]c6C(F)(F)F)c6c(c5c34)CCCC6)cc2)C[C@H](C)O1 | 2.15 µM | 14 µM | 4.96 µM | 20.9 µM | 3.12 µM | 17.9 µM | 3.19 µM | 14.6 µM | 4.53 µM | 16.9 µM | 4.76 µM | 4.76 µM | 19.9 µM | 23.1 µM
